The subject of series [1] is Nicotiana tabacum var. Samsun, WT. The series is described as follows: Herbicide tolerance test, wild-type tobacco. Conditions: fomesafen 10 g ai ha^-1 to aerial tissue at approximately 10-leaf stage, visual assessment 5 days post application. It is filed as in vivo. As to the method: 7.1 The binary vector pFT2 was transformed into Agrobacterium tumefaciens strain LBA 4404 using the freeze thaw method of transformation provided by Holsters et al., 1978. Tobacco transformation and whole plant regeneration was performed using Nicotiana tabacum var. Samsun according to standard protocols detailed by Bevan, 1984. Transformation events were selected on MS-media containing kanamycin. Other transformation methods may be employed for the transformation of other crops, such as soybean. Examples of such methods are referred to below.
9.1 Following tissue culture, kanamycin-resistant plantlets were transferred to 5 inch pots containing John Innes potting compost no. 3. The plants were allowed to develop to approximately the 10-leaf stage and fomesafen applied at 10 g ai ha^−1, formulated with non-ionic surfactant, to the aerial tissue using a track sprayer. Visual assessment of phytotoxicity/plant necrosis is performed 5 days post application.

For series [2], the system named is transgenic tobacco line T82 3747 (pFT2: soybean GST 3.3 and homoglutathione synthetase). The series is described as follows: Herbicide tolerance test, transgenic tobacco line T82 3747. It is filed as in vivo, Nicotiana tabacum. The following applies: fomesafen 10 g ai ha^-1 to aerial tissue at approximately 10-leaf stage, visual assessment 5 days post application. From the text: (§1) 6.1 Plants with increased tolerance to the herbicides acifluorfen and fomesafen were obtained by expression in the plant host of both the active soybean GST 3.3 and the homoglutathione synthetase to further increase levels of homoglutathione, required for the enhanced efficiency function of GST 3.3. 6.2 PCR, using oligonucleotide primers hGSH-Nco1 (SEQ ID No. 21) and hGSH-Kpn1 (SEQ ID No.22) was used to introduce a 5′ Nco1 site and 3′ Kpn1 site into the […]. The resulting PCR product was purified, sequenced, digested with Nco1 and Kpn1 and ligated into the vector pMJB2 (FIG. 1). The expression cassette, comprising the double enhanced CaMV35S promoter: Glucanase II leader, hGSH synthetase cDNA and nos terminator was then excised from pMJB2 using […] and ligated into the similarly digested binary vector pMOG800 (FIG. 3). 6.3 Oligonucleotide primers 3.6-Bgl II (SEQ ID No. 23) and 3.6 Nco1 (SEQ ID No.24) were used to introduce Nco1 and Bgl II sites at the 5′ and 3′ end of the GST 3.6 cDNA respectively. The resulting PCR product was purified, sequenced, digested with Nco1 and Bgl II and sub-cloned into the vector pMOG 1051 (FIG. 2). […] Orientation of the insert was determined by PCR. […]

The test system of series [3] is transgenic tobacco line T82 3740 (pFT2: soybean GST 3.3 and homoglutathione synthetase). The experiment in a line: Herbicide tolerance test, transgenic tobacco line T82 3740. It is filed as in vivo, Nicotiana tabacum. The following applies: fomesafen 10 g ai ha^-1 to aerial tissue at approximately 10-leaf stage, visual assessment 5 days post application.
Excerpt: as §1

Series [4] deals with T1, Glycine max (soybean) homoglutathione synthetase, recombinant, C-terminal HIS-tag (pET-MS4-His), SEQ ID No. 1 (Glycine max, UniProt Q9M426).
T1 sequence (Q9M426 1-499): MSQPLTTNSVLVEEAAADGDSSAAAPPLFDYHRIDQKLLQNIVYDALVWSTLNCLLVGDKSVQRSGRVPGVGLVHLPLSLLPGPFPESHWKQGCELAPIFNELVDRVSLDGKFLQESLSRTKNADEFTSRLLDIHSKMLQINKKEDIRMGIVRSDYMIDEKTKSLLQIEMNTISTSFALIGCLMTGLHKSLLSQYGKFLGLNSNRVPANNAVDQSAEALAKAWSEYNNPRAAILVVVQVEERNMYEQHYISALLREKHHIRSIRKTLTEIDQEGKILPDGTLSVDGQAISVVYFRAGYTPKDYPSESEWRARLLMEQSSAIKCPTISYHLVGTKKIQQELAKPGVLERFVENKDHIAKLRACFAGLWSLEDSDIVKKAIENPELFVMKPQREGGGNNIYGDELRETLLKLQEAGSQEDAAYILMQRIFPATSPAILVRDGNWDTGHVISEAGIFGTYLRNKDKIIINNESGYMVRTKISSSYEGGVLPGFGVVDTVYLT
The series is described as follows: Activity of recombinant homoglutathione synthetase (addition of glycine or β-alanine onto γ-glutamylcysteine; monobromobimane derivatisation). In kind it is biochemical. The following applies: 250 mM Tris-HCl pH 8.0, 50 mM KCl, 20 mM MgCl2, 5 mM DTT, 10 mM ATP, 1 mM γ-glutamylcysteine; 30° C. As to the method:
(§2) A 5′ Nco 1 and 3′ Xho 1 restriction enzyme site were introduced into the homoglutathione synthetase cDNA via PCR using primers MS4-Nco (SEQ ID No. 19) and MS-4-HIS (SEQ ID No. 20). Additionally, the use of the MS4-HIS primer provided a C-terminal HIS-tag to assist purification of the enzyme. 5.2 The resulting PCR fragment was digested with Nco1 and Xho 1 and ligated into similarly digested pET-24d. This vector was termed pET-MS4-His. The purification of homoglutathione synthetase was performed using the following method. E. coli BL21 (DE3) harbouring the pET-MS4-His plasmid (section 1.3) were grown at 30° C. until OD600=0.5, after which isopropyl-β-D-thiogalactoside (IPTG) was added to a final concentration of 0.1 mM. Following a 3 hour incubation the bacteria were collected by centrifugation, re-suspended in buffer A (20 mM Tris, 0.5 M NaCl, 5 mM imidazole pH 8.0) and lysed. […] 5.3 The eluted protein was concentrated using a Centriplus 30 (Amicon™) spin column and re-suspended in buffer A prior to application onto a 1 ml HiTrap chelating column (Phamacia™), pre-charged with NiSO4 and equilibrated as described previously. Affinity bound protein was then recovered using an increasing concentration of 20–200 mM imidiazole and the presence of His-tagged recombinant homoglutathione synthetase was detected using His-tagged antibodies according to known procedures. […]

Substrate in series [5]: NCCC(=O)O
The series is described as follows: purified protein, by the assay type. The following applies: other: 250 mM Tris-HCl pH 8.0, 50 mM KCl, 20 mM MgCl2, 5 mM DTT, 10 mM ATP, 1 mM γ-glutamylcysteine, 30° C.

Substrate in series [6]: NCC(=O)O
The experiment in a line: purified protein, by the assay type. In kind it is biochemical, Glycine max (soybean). Conditions: other: 250 mM Tris-HCl pH 8.0, 50 mM KCl, 20 mM MgCl2, 5 mM DTT, 10 mM ATP, 1 mM γ-glutamylcysteine, 30° C. As to the method: as §2

A word on the Km: it is the concentration of substrate that gives half-maximal velocity.

In the case of `CS(=O)(=O)NC(=O)c1cc(Oc2ccc(C(F)(F)F)cc2Cl)ccc1[N+](=O)[O-]` [fomesafen], the “% damage” value in series [1] was determined as 55%; in series [2] it was 5%; in series [3] it was 15%.

`NCC(=O)O` [Glycine]: in series [4], the Vmax amounted to 3300 ± 341 pkats/mg hGS. Still for that read-out and setting: the figure for `NCCC(=O)O` [β-alanine] is 42250 ± 3173 pkats/mg hGS.

B1: Glycine max (soybean) homoglutathione synthetase, recombinant, C-terminal HIS-tag (pET-MS4-His), SEQ ID No. 1 (Glycine max) (protein)
chain: T1 sequence (Q9M426 1-499)
As to B1, the Km in series [5] came to 0.84 ± 0.19 mM; in series [6], 54.9 ± 18.7 mM.

The record behind these values is US7056715B1, “GST sequences from soybean and their use in the production of herbicide resistant plants” (Syngenta Limited, priority 1999, dated 2006).
